Laboratory results: ChEMBL document CHEMBL1129204, “Synthesis of ribofuranosyl glycosides of echiguanines A and B, inhibitors of phosphatidylinositol 4-kinase” (Bioorg Med Chem Lett, 1996)
≈ marks a conversion by molar mass, not a printed value.

What was measured:
[1] = biological target: T1, Phosphatidylinositol 4-kinase, PI4K (Homo sapiens, UniProt Q9BTU6+Q8TCG2+Q9UBF8+P42356); test: Inhibition of phosphatidylinositol 4-kinase at 100 ug/ml (weak inhibition); assay type: protein assay
[2] = biological target: T1, Phosphatidylinositol 4-kinase, PI4K; test: Inhibition of phosphatidylinositol 4-kinase; assay type: protein assay

SMILES | IC50 [1] | IC50 [2] [µg/mL]
N=C(N)CCNC(=O)c1cn(C2O[C@H](CO)C(O)[C@H]2O)c2nc(N)nc(O)c12 (single isomer, unassigned) | weak inhibition | 
N=C(N)CCNC(=O)c1c[nH]c2nc(N)nc(O)c12 [ECHIGUANINE A] |  | 0.03 (≈ 0.114 µM)
